{
  "source": "PubChem BioAssay (NCI)",
  "test_in_all_cases": "inhibition of tumour cell growth, NCI panel, 48 h",
  "key": {"DU-145 prostate": {"system": "DU-145 prostate"}, "PC-3 prostate": {"system": "PC-3 prostate"}, "MOLT-4 leukemia": {"system": "MOLT-4 leukemia"}, "K-562 leukemia": {"system": "K-562 leukemia"}, "SR leukemia": {"system": "SR leukemia"}, "HOP-92 NSCLC": {"system": "HOP-92 NSCLC"}, "SK-MEL-5 melanoma": {"system": "SK-MEL-5 melanoma"}, "SK-MEL-28 melanoma": {"system": "SK-MEL-28 melanoma"}, "SK-OV-3 ovarian": {"system": "SK-OV-3 ovarian"}, "MDA-MB-468 breast": {"system": "MDA-MB-468 breast"}, "OVCAR-4 ovarian": {"system": "OVCAR-4 ovarian"}, "EKVX NSCLC": {"system": "EKVX NSCLC"}, "A498 renal": {"system": "A498 renal"}, "MDA-MB-231 breast": {"system": "MDA-MB-231 breast"}, "KM12 colon": {"system": "KM12 colon"}, "HCC-2998 colon": {"system": "HCC-2998 colon"}, "HL-60(TB) leukemia": {"system": "HL-60(TB) leukemia"}, "TK-10 renal": {"system": "TK-10 renal"}, "786-0 renal": {"system": "786-0 renal"}, "CAKI-1 renal": {"system": "CAKI-1 renal"}, "OVCAR-5 ovarian": {"system": "OVCAR-5 ovarian"}, "M14 melanoma": {"system": "M14 melanoma"}, "IGROV1 ovarian": {"system": "IGROV1 ovarian"}, "NCI-H226 lung": {"system": "NCI-H226 lung"}, "MALME-3M melanoma": {"system": "MALME-3M melanoma"}, "OVCAR-3 ovarian": {"system": "OVCAR-3 ovarian"}, "UO-31 renal": {"system": "UO-31 renal"}, "SK-MEL-2 melanoma": {"system": "SK-MEL-2 melanoma"}, "MDA-MB-435": {"system": "MDA-MB-435"}, "UACC-62 melanoma": {"system": "UACC-62 melanoma"}, "CCRF-CEM leukemia": {"system": "CCRF-CEM leukemia"}, "NCI-H522 lung": {"system": "NCI-H522 lung"}, "SN12C renal": {"system": "SN12C renal"}, "HCT-15 colon": {"system": "HCT-15 colon"}, "SF-539 CNS": {"system": "SF-539 CNS"}, "ACHN renal": {"system": "ACHN renal"}, "SNB-75 CNS": {"system": "SNB-75 CNS"}, "COLO 205 colon": {"system": "COLO 205 colon"}, "UACC-257 melanoma": {"system": "UACC-257 melanoma"}, "BT-549 breast": {"system": "BT-549 breast"}, "RPMI-8226 leukemia": {"system": "RPMI-8226 leukemia"}, "SNB-19 CNS": {"system": "SNB-19 CNS"}, "NCI-H23 lung": {"system": "NCI-H23 lung"}},
  "note": "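All cell lines were grown in 96-well plates and treated with compound for 48 hours. GI50: concentration for 50% inhibition of growth. The concentration for full growth arrest is given as TGI.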",
  "data": [
    {"smiles": "N[C@@H](CSSC[C@H](N)C(=O)Nc1ccc(OCC2CCCC2)cc1)C(=O)Nc1ccc(OCC2CCCC2)cc1", "values": [
      {"measurement": "GI50", "setting": "DU-145 prostate", "value": 339, "unit": "nM"},
      {"measurement": "TGI", "setting": "DU-145 prostate", "value": 1150, "unit": "nM"},
      {"measurement": "GI50", "setting": "PC-3 prostate", "value": 222, "unit": "nM"},
      {"measurement": "TGI", "setting": "PC-3 prostate", "value": 530, "unit": "nM"},
      {"measurement": "GI50", "setting": "MOLT-4 leukemia", "value": 223, "unit": "nM"},
      {"measurement": "TGI", "setting": "MOLT-4 leukemia", "value": 501, "unit": "nM"},
      {"measurement": "GI50", "setting": "K-562 leukemia", "value": 194, "unit": "nM"},
      {"measurement": "TGI", "setting": "K-562 leukemia", "value": 434, "unit": "nM"},
      {"measurement": "GI50", "setting": "SR leukemia", "value": 214, "unit": "nM"},
      {"measurement": "TGI", "setting": "SR leukemia", "value": 584, "unit": "nM"},
      {"measurement": "GI50", "setting": "HOP-92 NSCLC", "value": 1740, "unit": "nM"},
      {"measurement": "TGI", "setting": "HOP-92 NSCLC", "value": 3430, "unit": "nM"},
      {"measurement": "GI50", "setting": "SK-MEL-5 melanoma", "value": 871, "unit": "nM"},
      {"measurement": "TGI", "setting": "SK-MEL-5 melanoma", "value": 2130, "unit": "nM"},
      {"measurement": "GI50", "setting": "SK-MEL-28 melanoma", "value": 1260, "unit": "nM"},
      {"measurement": "TGI", "setting": "SK-MEL-28 melanoma", "value": 2550, "unit": "nM"},
      {"measurement": "GI50", "setting": "SK-OV-3 ovarian", "value": 570, "unit": "nM"},
      {"measurement": "TGI", "setting": "SK-OV-3 ovarian", "value": 1730, "unit": "nM"},
      {"measurement": "GI50", "setting": "MDA-MB-468 breast", "value": 539, "unit": "nM"},
      {"measurement": "TGI", "setting": "MDA-MB-468 breast", "value": 1390, "unit": "nM"},
      {"measurement": "GI50", "setting": "OVCAR-4 ovarian", "value": 389, "unit": "nM"},
      {"measurement": "TGI", "setting": "OVCAR-4 ovarian", "value": 1650, "unit": "nM"},
      {"measurement": "GI50", "setting": "EKVX NSCLC", "value": 427, "unit": "nM"},
      {"measurement": "TGI", "setting": "EKVX NSCLC", "value": 1540, "unit": "nM"},
      {"measurement": "GI50", "setting": "A498 renal", "value": 7150, "unit": "nM"},
      {"measurement": "TGI", "setting": "A498 renal", "value": 20100, "unit": "nM"},
      {"measurement": "GI50", "setting": "MDA-MB-231 breast", "value": 202, "unit": "nM"},
      {"measurement": "TGI", "setting": "MDA-MB-231 breast", "value": 422, "unit": "nM"},
      {"measurement": "GI50", "setting": "KM12 colon", "value": 182, "unit": "nM"},
      {"measurement": "TGI", "setting": "KM12 colon", "value": 364, "unit": "nM"},
      {"measurement": "GI50", "setting": "HCC-2998 colon", "value": 278, "unit": "nM"},
      {"measurement": "TGI", "setting": "HCC-2998 colon", "value": 793, "unit": "nM"},
      {"measurement": "GI50", "setting": "HL-60(TB) leukemia", "value": 228, "unit": "nM"},
      {"measurement": "TGI", "setting": "HL-60(TB) leukemia", "value": 777, "unit": "nM"},
      {"measurement": "GI50", "setting": "TK-10 renal", "value": 1760, "unit": "nM"},
      {"measurement": "TGI", "setting": "TK-10 renal", "value": 3230, "unit": "nM"},
      {"measurement": "GI50", "setting": "786-0 renal", "value": 1640, "unit": "nM"},
      {"measurement": "TGI", "setting": "786-0 renal", "value": 3100, "unit": "nM"},
      {"measurement": "GI50", "setting": "CAKI-1 renal", "value": 677, "unit": "nM"},
      {"measurement": "TGI", "setting": "CAKI-1 renal", "value": 1900, "unit": "nM"},
      {"measurement": "GI50", "setting": "OVCAR-5 ovarian", "value": 1140, "unit": "nM"},
      {"measurement": "TGI", "setting": "OVCAR-5 ovarian", "value": 2380, "unit": "nM"},
      {"measurement": "GI50", "setting": "M14 melanoma", "value": 178, "unit": "nM"},
      {"measurement": "TGI", "setting": "M14 melanoma", "value": 344, "unit": "nM"},
      {"measurement": "GI50", "setting": "IGROV1 ovarian", "value": 292, "unit": "nM"},
      {"measurement": "TGI", "setting": "IGROV1 ovarian", "value": 823, "unit": "nM"},
      {"measurement": "GI50", "setting": "NCI-H226 lung", "value": 1720, "unit": "nM"},
      {"measurement": "TGI", "setting": "NCI-H226 lung", "value": 3400, "unit": "nM"},
      {"measurement": "GI50", "setting": "MALME-3M melanoma", "value": 6710, "unit": "nM"},
      {"measurement": "TGI", "setting": "MALME-3M melanoma", "value": 19600, "unit": "nM"},
      {"measurement": "GI50", "setting": "OVCAR-3 ovarian", "value": 765, "unit": "nM"},
      {"measurement": "TGI", "setting": "OVCAR-3 ovarian", "value": 2090, "unit": "nM"},
      {"measurement": "GI50", "setting": "UO-31 renal", "value": 716, "unit": "nM"},
      {"measurement": "TGI", "setting": "UO-31 renal", "value": 2020, "unit": "nM"},
      {"measurement": "GI50", "setting": "SK-MEL-2 melanoma", "value": 1700, "unit": "nM"},
      {"measurement": "TGI", "setting": "SK-MEL-2 melanoma", "value": 3170, "unit": "nM"},
      {"measurement": "GI50", "setting": "MDA-MB-435", "value": 163, "unit": "nM"},
      {"measurement": "TGI", "setting": "MDA-MB-435", "value": 340, "unit": "nM"},
      {"measurement": "GI50", "setting": "UACC-62 melanoma", "value": 612, "unit": "nM"},
      {"measurement": "TGI", "setting": "UACC-62 melanoma", "value": 1380, "unit": "nM"},
      {"measurement": "GI50", "setting": "CCRF-CEM leukemia", "value": 170, "unit": "nM"},
      {"measurement": "TGI", "setting": "CCRF-CEM leukemia", "value": 374, "unit": "nM"},
      {"measurement": "GI50", "setting": "NCI-H522 lung", "value": 1510, "unit": "nM"},
      {"measurement": "TGI", "setting": "NCI-H522 lung", "value": 3030, "unit": "nM"},
      {"measurement": "GI50", "setting": "SN12C renal", "value": 460, "unit": "nM"},
      {"measurement": "TGI", "setting": "SN12C renal", "value": 960, "unit": "nM"},
      {"measurement": "GI50", "setting": "HCT-15 colon", "value": 230, "unit": "nM"},
      {"measurement": "TGI", "setting": "HCT-15 colon", "value": 604, "unit": "nM"},
      {"measurement": "GI50", "setting": "SF-539 CNS", "value": 461, "unit": "nM"},
      {"measurement": "TGI", "setting": "SF-539 CNS", "value": 1520, "unit": "nM"},
      {"measurement": "GI50", "setting": "ACHN renal", "value": 423, "unit": "nM"},
      {"measurement": "TGI", "setting": "ACHN renal", "value": 1490, "unit": "nM"},
      {"measurement": "GI50", "setting": "SNB-75 CNS", "value": 192, "unit": "nM"},
      {"measurement": "TGI", "setting": "SNB-75 CNS", "value": 450, "unit": "nM"},
      {"measurement": "GI50", "setting": "COLO 205 colon", "value": 3230, "unit": "nM"},
      {"measurement": "TGI", "setting": "COLO 205 colon", "value": 12000, "unit": "nM"},
      {"measurement": "GI50", "setting": "UACC-257 melanoma", "value": 1740, "unit": "nM"},
      {"measurement": "TGI", "setting": "UACC-257 melanoma", "value": 3460, "unit": "nM"},
      {"measurement": "GI50", "setting": "BT-549 breast", "value": 1460, "unit": "nM"},
      {"measurement": "TGI", "setting": "BT-549 breast", "value": 3030, "unit": "nM"},
      {"measurement": "GI50", "setting": "RPMI-8226 leukemia", "value": 738, "unit": "nM"},
      {"measurement": "TGI", "setting": "RPMI-8226 leukemia", "value": 2430, "unit": "nM"},
      {"measurement": "GI50", "setting": "SNB-19 CNS", "value": 545, "unit": "nM"},
      {"measurement": "TGI", "setting": "SNB-19 CNS", "value": 1190, "unit": "nM"},
      {"measurement": "GI50", "setting": "NCI-H23 lung", "value": 408, "unit": "nM"},
      {"measurement": "TGI", "setting": "NCI-H23 lung", "value": 1510, "unit": "nM"}
    ]}
  ]
}
